30 compounds from patent publication US20230051589A1, “COMPOUNDS AND COMPOSITIONS FOR TREATING CONDITIONS ASSOCIATED WITH NLRP ACTIVITY” (Novartis AG, priority 2018, published 2023) can be followed below.

As a reminder, the IC50 is the concentration that inhibits the measured activity by half.

One test deals with IL-1β production in PMA-differentiated THP-1 cells. The experiment in a line: IL-1β production in PMA-differentiated THP-1 cells stimulated with gramicidin (hTHP-1 assay, 2% fetal bovine serum; Procedures 1-3). The test is classed as cell-based, human. The conditions noted are these: Homo sapiens, THP-1, Table B3; hTHP-1 assay containing 2% fetal bovine serum, gramicidin stimulation, IL-1β readout; read-out: hTHP-1 IC50. Put shortly:
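IL-1β released into supernatants was read by HTRF after 2 h gramicidin (5 μM) challenge. Before challenge, compounds (3-fold dilutions, top 100 μM, 0.37% DMSO) were given 1 h on THP-1 cells differentiated with PMA (20 ng/ml, 16-18 h) and held in 2% FBS medium.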
For the compound `CC(O)(CO)c1nc(CO)c(S(N)(=O)=NC(=O)Nc2c3c(cc4c2CC4)CCC3)s1` (stereo not drawn) [Example 757, 2-(1,2-Dihydroxypropan-2-yl)-4-(hydroxymethyl)-N′-((2,4,5,6-tetrahydro-1H-cyclobuta[f]inden-3-yl)carbamoyl)thiazole-5-sulfonimidamide], the half-inhibitory concentration (IC50) lay in the range of 0.04 to 0.2 µM. In the case of `NS(=O)(=NC(=O)Nc1c2c(cc3c1CCC3)CCC2)c1cc2c(s1)CCOC2` (stereo not drawn) [Example 758, N′-((1,2,3,5,6,7-hexahydro-s-indacen-4-yl)carbamoyl)-6,7-dihydro-4H-thieno[3,2-c]pyran-2-sulfonimidamide], the IC50 fell in the range of 0.2 to 1 µM. For the compound `NS(=O)(=NC(=O)Nc1c2c(cc3c1CCC3)CCC2)c1ccc(-c2ccccc2)s1` (stereo not drawn) [Example 759, N′-((1,2,3,5,6,7-hexahydro-s-indacen-4-yl)carbamoyl)-5-phenylthiophene-2-sulfonimidamide], the half-maximal inhibitory concentration (IC50) was in the range of 5 to 30 µM. For the compound `CC(C)(O)c1sc(S(N)(=O)=NC(=O)Nc2c3c(cc4c2CCC4)CCC3)cc1-c1ccccc1` (stereo not drawn) [Example 760, N′-((1,2,3,5,6,7-hexahydro-s-indacen-4-yl)carbamoyl)-5-(2-hydroxypropan-2-yl)-4-phenylthiophene-2-sulfonimidamide], the concentration for half-maximal inhibition (IC50) lay within 0.2 to 1 µM.

Turning to `C[C@](O)(COCCOCCOCCOCCOCc1ccccc1)c1ncc(S(N)(=O)=NC(=O)Nc2c3c(cc4c2CCC4)CCC3)s1` (stereo partly drawn) [Example 761, N-((1,2,3,5,6,7-hexahvdro-s-indacen-4-yl)carbamoyl)-2-((S)-16-hydroxy-1-phenyl-2,5,8,11,14-pentaoxaheptadecan-16-yl)thiazole-5-sulfonimidamide], the IC50 lay within 0.2 to 1 µM. On the same count and under the same terms, to `CC(C)(O)c1cccc(S(N)(=O)=NC(=O)Nc2c3c(cc4c2CCC4)CCC3)n1` (stereo not drawn) [Example 763, N′-((1,2,3,5,6,7-hexahydro-s-indacen-4-yl)carbamoyl)-6-(2-hydroxypropan-2-yl)pyridine-2-sulfonimidamide] belongs 1 to 5 µM.

Regarding `CN(C)CC(C)(C)c1ccc(S(N)(=O)=NC(=O)Nc2c3c(cc4c2CCC4)CCC3)cc1` (stereo not drawn) [Example 764, 4-(1-(Dimethylamino)-2-methylpropan-2-yl)-N′-((1,2,3,5,6,7-hexahydro-s-indacen-4-yl)carbamoyl)benzenesulfonimidamide], the IC50 lay in the range of 1 to 5 µM. On the same count and under the same terms, to `CC(C)c1cnc(S(N)(=O)=NC(=O)Nc2c3c(cc4c2CCC4)CCC3)c(F)c1` (stereo not drawn) [Example 765, 3-Fluoro-N'-((1,2,3,5,6,7-hexahydro-s-indacen-4-yl)carbamoyl)-5-isopropylpyridine-2-sulfonimidamide] belongs 1 to 5 µM; to `CC(C)(O)c1sc(S(N)(=O)=NC(=O)Nc2c3c(cc4c2CCC4)CCC3)nc1CO` (stereo not drawn) [Example 767, N′-((1,2,3,5,6,7-hexahydro-s-indacen-4-yl)carbamoyl)-4-(hydroxymethyl)-5-(2-hydroxypropan-2-yl)thiazole-2-sulfonimidamide], 0.04 to 0.2 µM; to `CC1c2c(csc2S(N)(=O)=NC(=O)Nc2c3c(cc4c2CCC4)CCC3)CN1C` (stereo not drawn) [Example 768, N′-((1,2,3,5,6,7-hexahydro-s-indacen-4-yl)carbamoyl)-5,6-dimethyl-5,6-dihydro-4H-thieno[3,4-c]pyrrole-1-sulfonimidamide], 0.2 to 1 µM. Same read-out and setting: the figure for `CN1CCc2sc(S(N)(=O)=NC(=O)Nc3c4c(cc5c3CC5)CCC4)c(F)c2C1` (stereo not drawn) [Example 769, 3-Fluoro-5-methyl-N′-((2,4,5,6-tetrahydro-1H-cyclobuta[f]inden-3-yl)carbamoyl)-4,5,6,7-tetrahydrothieno[3,2-c]pyridine-2-sulfonimidamide] is 0.04 to 0.2 µM; for `NS(=O)(=NC(=O)Nc1c2c(cc3c1CC3)CCC2)c1sc2c(c1F)COCC2` (stereo not drawn) [Example 770, 3-Fluoro-N′-((2,4,5,6-tetrahydro-1H-cyclobuta[f]inden-3-yl)caibamoyl)-6,7-dihydro-4H-thieno[3,2-c]pyran-2-sulfonimidamide] it is 0.2 to 1 µM. In the case of `CC(C)(CO)c1ncc(S(N)(=O)=NC(=O)Nc2c3c(c(C#N)c4c2CCC4)CCC3)s1` (stereo not drawn) [Example 772, N′-((8-cyano-1,2,3,5,6,7-hexahydro-s-indacen-4-yl)carbamoyl)-2-(1-hydroxy-2-methylpropan-2-yl)thiazole-5-sulfonimidamide], the half-maximal inhibitory concentration (IC50) is 0.04 to 0.2 µM. Same read-out and setting: the figure for `NS(=O)(=NC(=O)Nc1c2c(cc3c1CC3)CCC2)c1cc2c(s1)CCN(CC(F)F)C2` (stereo not drawn) [Example 773, 5-(2,2-Difluoroethyl)-N′-((2,4,5,6-tetrahydro-1H-cyclobuta[f]inden-3-yl)carbamoyl)-4,5,6,7-tetrahydrothieno[3,2-c]pyridine-2-sulfonimidamide] is 1 to 5 µM; for `COC1CCc2c(csc2S(N)(=O)=NC(=O)Nc2c3c(cc4c2CCC4)CCC3)C1` (stereo not drawn) [Example 774, N′-((1,2,3,5,6,7-hexahydro-s-indacen-4-yl)carbamoyl)-5-methoxy-4,5,6,7-tetrahydrobenzo[c]thiophene-1-sulfonimidamide] it is 1 to 5 µM; for `COC1CCc2csc(S(N)(=O)=NC(=O)Nc3c4c(cc5c3CCC5)CCC4)c2C1` (stereo not drawn) [Example 775, N′-((1,2,3,5,6,7-hexahydro-s-indacen-4-yl)carbamoyl)-6-methoxy-4,5,6,7-tetrahydrobenzo[c]thiophene-1-sulfonimidamide] it is 1 to 5 µM. The same measure, in the same setting: to `CNCc1csc(S(N)(=O)=NC(=O)Nc2c3c(cc4c2CC4)CCC3)c1F` (stereo not drawn) [Example 777, 3-Fluoro-4-((methylamino)methyl)-N′-((2,4,5,6-tetrahydro-1H-cyclobuta[f]inden-3-yl)carbamoyl)thiophene-2-sulfonimidamide] belongs 0.04 to 0.2 µM. Same read-out and setting: the figure for `CNC1CCc2cc(S(N)(=O)=NC(=O)Nc3c4c(cc5c3CCC5)CCC4)sc2C1` (stereo not drawn) [Example 778, N′-((1,2,3,5,6,7-hexahydro-s-indacen-4-yl)carbamoyl)-6-(methylamino)-4,5,6,7-tetrahydrobenzo[b]thiophene-2-sulfonimidamide] is 0.2 to 1 µM. `CNCc1csc(S(N)(=O)=NC(=O)Nc2c3c(cc4c2CCC4)CCC3)c1F` (stereo not drawn) [Example 779, 3-Fluoro-N′-((1,2,3,5,6,7-hexahydro-s-indacen-4-yl)carbamoyl)-4-((methylamino)methyl)thiophene-2-sulfonimidamide]: the 50% inhibitory concentration (IC50) fell in the range of 0.04 to 0.2 µM.

Regarding `NS(=O)(=NC(=O)Nc1c2c(cc3c1CCC3)CCC2)c1cnc(C(O)(COCCOCc2ccccc2)COCCOCc2ccccc2)s1` (stereo not drawn) [Example 780, N′-((1,2,3,5,6,7-hexahydro-s-indacen-4-yl)carbamoyl)-2-(7-hydroxy-1,13-diphenyl-2,5,9,12-tetraoxatridecan-7-yl)thiazole-5-sulfonimidamide], the IC50 was 1 to 5 µM.

In the case of `NS(=O)(=NC(=O)Nc1c2c(cc3c1CC3)CCC2)c1cc2c(s1)CCNC2C(F)F` (stereo not drawn) [Example 781, 4-(Difluoromethyl)-N′-((2,4,5,6-tetrahydro-1H-cyclobuta[f]inden-3-yl)carbamoyl)-4,5,6,7-tetrahydrothieno[3,2-c]pyridine-2-sulfonimidamide], the IC50 is 0.04 to 0.2 µM. Same read-out and setting: the figure for `COc1cc(-c2ccc3c(c2NC(=O)N=[S@@](N)(=O)c2cnc(C(C)(C)O)s2)CCC3)ccn1` [Example 784, (R)-2-(2-hydroxypropan-2-yl)-N′-((5-(2-methoxypyridin-4-yl)-2,3-dihydro-1H-inden-4-yl)carbamoyl)thiazole-5-sulfonimidamide] is 0.008 to 0.04 µM; for `NS(=O)(=NC(=O)Nc1c2c(cc3c1CC3)CCC2)c1nn(C(F)F)cc1F` (stereo not drawn) [compound 734, 1-(Difluoromethyl)-4-fluoro-N′-((2,4,5,6-tetrahydro-1H-cyclobuta[f]inden-3-yl)carbamoyl)-1H-pyrazole-3-sulfonimidamide] it is 0.04 to 0.2 µM. The same measure, in the same setting: to `CC(C)n1nc(S(N)(=O)=NC(=O)Nc2c3c(cc4c2C(=O)CC4)CCC3)cc1CO` (stereo not drawn) [compound 739, 5-(Hydroxymethyl)-1-isopropyl-N′-((3-oxo-1,2,3,5,6,7-hexahydro-s-indacen-4-yl)carbamoyl)-1H-pyrazole-3-sulfonimidamide] belongs 1 to 5 µM.

The same test, now with this note: Homo sapiens, THP-1, hTHP-1 assay containing 2% fetal bovine serum, Table B2, class symbols; read-out: IC50.
Regarding `CC(OC(F)F)c1ccc(S(N)(=O)=NC(=O)Nc2c3c(cc4c2CCC4)CCC3)cc1` (stereo not drawn) [compound 452, 4-(1-(Difluoromethoxy)ethyl)-N′-((1,2,3,5,6,7-hexahydro-s-indacen-4-yl)carbamoyl)benzenesulfonimidamide], the 50% inhibitory concentration (IC50) is 1 to 5 µM. Consider `CNCC(C)(C)c1ccc(S(N)(=O)=NC(=O)Nc2c3c(cc4c2CCC4)CCC3)cc1` (stereo not drawn) [compound 496, N′-((1,2,3,5,6,7-hexahydro-s-indacen-4-yl)carbamoyl)-4-(2-methyl-1-(methylamino)propan-2-yl)benzenesulfonimidamide], for which the concentration for half-maximal inhibition (IC50) fell in the range of 1 to 5 µM.

`CNCc1csc(S(N)(=O)=NC(=O)Nc2c3c(cc4c2CCC4)CCC3)c1` (stereo not drawn) [compound 672, N′-((1,2,3,5,6,7-hexahydro-s-indacen-4-yl)carbamoyl)-4-((methylamino)methyl)thiophene-2-sulfonimidamide]: the IC50 fell in the range of 0.04 to 0.2 µM.

Still in this test, the particulars now being: Table B3; hTHP-1 assay containing 2% fetal bovine serum, gramicidin stimulation, IL-1β readout; read-out: hTHP-1 IC50.
For the compound `CN1CCCC(c2ccc(S(N)(=O)=NC(=O)Nc3c4c(cc5c3CC5)CCC4)c(F)c2)C1` (stereo not drawn) [Example 766, 2-Fluoro-4-(1-methylpiperidin-3-yl)-N′-((2,4,5,6-tetrahydro-1H-cyclobuta[f]inden-3-yl)carbamoyl)benzenesulfonimidamide], the IC50 was in the range of 1 to 5 µM. Consider `CC(NC1CCC1)c1ccc(S(N)(=O)=NC(=O)Nc2c3c(cc4c2CC4)CCC3)c(F)c1` (stereo not drawn) [Example 846, (R/S, S)-4-(1-(cyclobutylamino)ethyl)-2-fIuoro-N′-((2,4,5,6-tetrahydro-1H-cyclobuta[f]inden-3-yl)carbamoyl)benzenesulfonimidamide], for which the IC50 lay in the range of 1 to 5 µM.

Regarding `NS(=O)(=NC(=O)Nc1c2c(cc3c1CCC3)CCC2)c1ccc(C2CCN2)cc1` (stereo not drawn) [Example 863, (S/R, R)-4-(azetidin-2-yl)-N′-((1,2,3,5,6,7-hexahydro-s-indacen-4-yl)carbamoyl)benzenesulfonimidamide], the half-inhibitory concentration (IC50) was 0.2 to 1 µM.
